Consider 18 compounds from article PMC9972480, “Synthesis of Quinoline and Dihydroquinoline Embelin Derivatives as Cardioprotective Agents” (Journal of Natural Products, 2023).

Series [1] in a line: MTT cell viability assay (cytotoxicity) in J774 macrophages. In kind it is cell-based, murine. As to conditions: mouse. Here is the method: (§1) The potential cytotoxicity of embelin (1) together with derivatives (4a–4m, 5a–5d, 6a–6m) was tested in cardiomyocytes and macrophages in order to ensure that compounds lack toxicity also in immune cells. Cell viability was determined by the MTT assay.[58] Four dihydroquinoline derivatives (4b, 4f, 4i, and 4m) and six quinoline compounds (6a, 6d, 6e, 6i, 6k, and 6m) maintained higher viable cell rates in both types of cells. IC50 values of these derivatives were higher than 40 μM and were selected for further analysis.
(§2) J774A.1 murine macrophage cells, H9c2 embryonic rat heart-derived cells, and MCF-7 breast cancer cells were purchased from American Type Cell Culture (ATCC, Manassas, VA, USA). Cells were cultured in Dulbecco’s modified Eagle medium with 10% fetal bovine serum and 1% penicillin/streptomycin (Lonza) and were maintained at 37 °C in a humidified incubator containing 5% CO2.
(§3) Cell viability was assessed by conducting an MTT [3-(4,5-dimethylthiazol-2-yl)-2,5-diphenyltetrazolium bromide dye] assay. Briefly, J 774A.1, H9c2, and MCF7 cells were seeded in 96-well plates for 24 h. Then, cells were treated with DOX in the absence or presence of compounds. MTT (Sigma) reagent was added to the medium for 1 h at 37 °C. Then, the formazan was dissolved in dimethyl sulfoxide (DMSO, 100 μL). Absorbance was measured at 540 nm with a microplate reader (BMG Labtech).

Series [2] is described as follows: MTT cell viability assay (cytotoxicity) in H9c2 cardiomyocytes. The class given is cell-based, rat. As to conditions: rat, H9c2 cardiomyocytes, 24 h, MTT; for viability at 24 h, 10 µM / viability at 24 h, 20 µM: mean ± SD, n = 3; for IC50 at 24 h: H9c2 cardiomyocytes (embryonic heart-derived cells), stated for both types of cells. On the procedure: as §1, §2, §3

On to `CCCCCCCCCCCC1=C(O)C(=O)C=C(O)C1=O` [Compound 1, embelin], for which the viability at 24 h, 10 µM in series [1] (J774 macrophages, 10 μM, 24 h, MTT, mean ± SD, n = 3, read-out: Cell viability (%) J774 macrophages 10 μM) was 21.3 ± 2.7%; in series [2], 36.9 ± 5.8%. For the same compound, the viability at 24 h, 20 µM in series [1] (J774 macrophages, 20 μM, 24 h, MTT, mean ± SD, n = 3, read-out: Cell viability (%) J774 macrophages 20 μM) was 15.3 ± 0.8%; in series [2], 8.3 ± 0.1%.

Compound `CCCCCCCCCCCC1=C(O)C(=O)C2=C(Nc3ccccc3C2c2ccc([N+](=O)[O-])cc2)C1=O` (stereo not shown) [Compound 4a, 2-Hydroxy-9-(4-nitrophenyl)-3-undecyl-9,10-dihydroacridine-1,4-dione] had a melting point of 164 to 166 °C. Further, in series [1], the viability at 24 h, 10 µM came to 50 ± 5.6% and the viability at 24 h, 20 µM is 43.7 ± 2%. For the same compound, in series [2], the viability at 24 h, 10 µM amounted to 94.8 ± 3.5% and the viability at 24 h, 20 µM worked out at 89.4 ± 0.6%.

In turn, `CCCCCCCCCCCC1=C(O)C(=O)C2=C(Nc3ccccc3C2c2ccccc2)C1=O` (stereo not shown) [Compound 4b, 2-Hydroxy-9-phenyl-3-undecyl-9,10-dihydroacridine-1,4-dione] displayed a melting point of 161 to 162 °C. In series [1], this compound yielded an IC50 at 24 h of more than 40 µM; a viability at 24 h, 10 µM of 99.7 ± 1.1%; a viability at 24 h, 20 µM of 98.7 ± 1.2%. In series [2], this compound had a 50% inhibitory concentration (IC50) at 24 h of more than 40 µM; a viability at 24 h, 10 µM of 98.1 ± 6.8%; a viability at 24 h, 20 µM of 95.8 ± 7.7%.

`CCCCCCCCCCCC1=C(O)C(=O)C2=C(Nc3ccccc3C2c2ccc(Cl)cc2)C1=O` (stereo not shown) [Compound 4c, 2-Hydroxy-9-(4-chlorophenyl)-3-undecyl-9,10-dihydroacridine-1,4-dione] had a melting point of 139 to 141 °C. In series [1], this compound gave a viability at 24 h, 10 µM of 49.1 ± 3.4% and a viability at 24 h, 20 µM of 39.5 ± 3.6%. Besides, in series [2], the viability at 24 h, 10 µM turned out to be 98.9 ± 3.4% and the viability at 24 h, 20 µM turned out to be 93.9 ± 2.3%.

`CCCCCCCCCCCC1=C(O)C(=O)C2=C(Nc3ccccc3C2c2ccc(Br)cc2)C1=O` (stereo not shown) [Compound 4d, 2-Hydroxy-9-(4-bromophenyl)-3-undecyl-9,10-dihydroacridine-1,4-dione]: the melting point lay within 139 to 140 °C. In series [1], this compound yielded a viability at 24 h, 10 µM of 38.5 ± 5.9% and a viability at 24 h, 20 µM of 32.9 ± 3.4%. For the same compound, in series [2], the viability at 24 h, 10 µM was determined as 99.5 ± 2.7% and the viability at 24 h, 20 µM was found to be 98.9 ± 6.1%.

With `CCCCCCCCCCCC1=C(O)C(=O)C=C(Nc2ccccc2)C1=O` [Compound 5a, 2-Hydroxy-5-(phenylamino)-3-undecylcyclohexa-2,5-diene-1,4-dione], in series [1], the viability at 24 h, 10 µM is 56.9 ± 4% and the viability at 24 h, 20 µM came out at 56.2 ± 2%. In series [2], the viability at 24 h, 10 µM is 99 ± 7.1% and the viability at 24 h, 20 µM was 83 ± 7%.

With `CCCCCCCCCCCC1=C(O)C(=O)C=C(Nc2ccc(OC)cc2)C1=O` [Compound 5b, 2-Hydroxy-5-((4-methoxyphenyl)amino)-3-undecylcyclohexa-2,5-diene-1,4-dione], in series [1], the viability at 24 h, 10 µM was determined as 68.4 ± 3.8% and the viability at 24 h, 20 µM worked out at 48.3 ± 1.7%. Further, in series [2], the viability at 24 h, 10 µM came to 89.3 ± 9.2% and the viability at 24 h, 20 µM turned out to be 87.4 ± 6.7%.

For `CCCCCCCCCCCC1=C(O)C(=O)C=C(Nc2ccc(Br)cc2)C1=O` [Compound 5c, 5-((4-Bromophenyl)amino)-2-hydroxy-3-undecylcyclohexa-2,5-diene-1,4-dione], in series [1], the viability at 24 h, 10 µM amounted to 56.9 ± 5.5% and the viability at 24 h, 20 µM is 39.4 ± 5.3%. Besides, in series [2], the viability at 24 h, 10 µM came to 61.9 ± 2.7% and the viability at 24 h, 20 µM came out at 56.1 ± 3.4%.

Turning to `CCCCCCCCCCCC1=C(O)C(=O)C=C(Nc2cccc([N+](=O)[O-])c2)C1=O` [Compound 5d, 2-Hydroxy-5-((3-nitrophenyl)amino)-3-undecylcyclohexa-2,5-diene-1,4-dione], the figures for the viability at 24 h, 10 µM in series [1] and in series [2] were 65.5 ± 1.9% and 67.8 ± 2.1%, respectively. Moreover, the viability at 24 h, 20 µM came out at 50.8 ± 7% in series [1] and 57.5 ± 1.4% in series [2].

For `CCCCCCCCCCCC1=C(O)C(=O)c2c(nc3ccccc3c2-c2ccccc2)C1=O` [Compound 6b, 2-Hydroxy-9-phenyl-3-undecylacridine-1,4-dione], the values for the viability at 24 h, 10 µM in series [1] and in series [2] were 81.8 ± 4.7% and 99.7 ± 2.1%, respectively. Moreover, the viability at 24 h, 20 µM stood at 63.9 ± 6.6% in series [1] and 68.1 ± 4.6% in series [2].

For `CCCCCCCCCCCC1=C(O)C(=O)c2c(nc3ccccc3c2-c2ccc(Cl)cc2)C1=O` [Compound 6c, 2-Hydroxy-9-(4-chlorophenyl)-3-undecylacridine-1,4-dione], the viability at 24 h, 10 µM in series [1] was determined as 83.4 ± 0.5%; in series [2], 95 ± 8.4%. In addition, the values for the viability at 24 h, 20 µM in series [1] and in series [2] were 55.8 ± 5.7% and 74.3 ± 4.8%, respectively.

In series [1], `CCCCCCCCCCCC1=C(O)C(=O)c2c(nc3ccccc3c2-c2ccc(F)cc2)C1=O` [Compound 6e, 2-Hydroxy-9-(4-fluorophenyl)-3-undecylacridine-1,4-dione] had an IC50 at 24 h of more than 40 µM; a viability at 24 h, 10 µM of 93.1 ± 4.5%; a viability at 24 h, 20 µM of 76.6 ± 5.9%. In series [2], the IC50 at 24 h was more than 40 µM; the viability at 24 h, 10 µM was found to be 96.7 ± 8.1%; the viability at 24 h, 20 µM worked out at 93.9 ± 0.9%.

In series [1], `CCCCCCCCCCCC1=C(O)C(=O)c2c(nc3ccccc3c2-c2cccc(F)c2)C1=O` [Compound 6f, 2-Hydroxy-9-(3-fluorophenyl)-3-undecylacridine-1,4-dione] registered a viability at 24 h, 10 µM of 79.3 ± 4.6% and a viability at 24 h, 20 µM of 62.2 ± 4.3%. In series [2], this compound yielded a viability at 24 h, 10 µM of 98.3 ± 4.9% and a viability at 24 h, 20 µM of 84.5 ± 4.3%.

On to `CCCCCCCCCCCC1=C(O)C(=O)c2c(nc3ccccc3c2-c2ccc(C(=O)OC)cc2)C1=O` [Compound 6g, Methyl 4-(2-hydroxy-1,4-dioxo-3-undecyl-1,4-dihydroacridin-9-yl)benzoate], for which, in series [1], the viability at 24 h, 10 µM came out at 78.4 ± 5.7% and the viability at 24 h, 20 µM stood at 42.2 ± 0.3%. For the same compound, in series [2], the viability at 24 h, 10 µM came to 88.7 ± 10.4% and the viability at 24 h, 20 µM was 70.6 ± 3%.

In series [1], `CCCCCCCCCCCC1=C(O)C(=O)c2c(nc3ccccc3c2-c2ccsc2)C1=O` [Compound 6h, 2-Hydroxy-9-(thiophen-3-yl)-3-undecylacridine-1,4-dione] showed a viability at 24 h, 10 µM of 73.5 ± 2.8% and a viability at 24 h, 20 µM of 56.7 ± 3.3%. In series [2], this compound returned a viability at 24 h, 10 µM of 75.3 ± 5% and a viability at 24 h, 20 µM of 71.1 ± 2.8%.

As for `CCCCCCCCCCCC1=C(O)C(=O)c2c(nc3ccccc3c2-c2ccc(C)c(C)c2)C1=O` [Compound 6i, 2-Hydroxy-9-(3,4-dimethylphenyl)-3-undecylacridine-1,4-dione], in series [1], the half-maximal inhibitory concentration (IC50) at 24 h was more than 40 µM; the viability at 24 h, 10 µM worked out at 93.3 ± 4.3%; the viability at 24 h, 20 µM turned out to be 75.1 ± 2.9%. In series [2], this compound gave an IC50 at 24 h of more than 40 µM; a viability at 24 h, 10 µM of 99.8 ± 3%; a viability at 24 h, 20 µM of 92.6 ± 5.4%.

As for `CCCCCCCCCCCC1=C(O)C(=O)c2c(nc3ccccc3c2-c2ccc(OC)c(OC)c2)C1=O` [Compound 6j, 2-Hydroxy-9-(3,4-dimethoxyphenyl)-3-undecylacridine-1,4-dione], the viability at 24 h, 10 µM in series [1] is 85.2 ± 3.7%; in series [2], 85.5 ± 6.2%. Also, the values for the viability at 24 h, 20 µM in series [1] and in series [2] were 64 ± 2.6% and 68.4 ± 8.6%, respectively.

In series [1], `CCCCCCCCCCCC1=C(O)C(=O)c2c(nc3cc(C)cc(C)c3c2-c2ccc([N+](=O)[O-])cc2)C1=O` [Compound 6l, 2-Hydroxy-6,8-dimethyl-9-(4-nitrophenyl)-3-undecylacridine-1,4-dione] returned a viability at 24 h, 10 µM of 82.3 ± 0.3% and a viability at 24 h, 20 µM of 63.8 ± 4.8%. Besides, in series [2], the viability at 24 h, 10 µM turned out to be 64.8 ± 6.7% and the viability at 24 h, 20 µM is 55.9 ± 9.4%.
